Laboratory results from PubChem BioAssay (NCI).
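How tested: cells in 96-well plates exposed to compound for 48 hours at five concentrations. Abbreviation: GI50, concentration required for 50% inhibition of growth. TGI marks complete inhibition of growth.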

Legend:
Assay in all cases: NCI-60 cell line screen, 48 h
[1] = test system: NCI-H226 lung
[2] = test system: NCI-H23 lung
[3] = test system: NCI-H460 lung
[4] = test system: NCI-H522 lung
[5] = test system: NCI/ADR-RES ovarian
[6] = test system: OVCAR-3 ovarian
[7] = test system: OVCAR-4 ovarian
[8] = test system: OVCAR-5 ovarian
[9] = test system: OVCAR-8 ovarian
[10] = test system: PC-3 prostate
[11] = test system: RXF 393 renal
[12] = test system: SF-268 CNS
[13] = test system: SF-295 CNS
[14] = test system: SF-539 CNS
[15] = test system: SK-MEL-2 melanoma
[16] = test system: SK-MEL-28 melanoma
[17] = test system: SK-MEL-5 melanoma
[18] = test system: SK-OV-3 ovarian
[19] = test system: SN12C renal
[20] = test system: SNB-19 CNS
[21] = test system: SNB-75 CNS
[22] = test system: SR leukemia
[23] = test system: SW-620 colon
[24] = test system: T-47D breast
[25] = test system: TK-10 renal
[26] = test system: U251 CNS
[27] = test system: UACC-257 melanoma
[28] = test system: UACC-62 melanoma
[29] = test system: UO-31 renal

For `CCCSC1=NC2C(N(CC)C(=O)N2CC)N1/N=C/C=C/c1ccccc1[N+](=O)[O-]` (configuration not stated), the TGI [1] was > 100 µM, the GI50 [2] was 4.04 µM and the TGI [2] was > 100 µM. The GI50 [3] was 3.45 µM, the TGI [3] was > 100 µM and the GI50 [4] was 2.12 µM. For the same molecule, the TGI [4] was 41 µM, the GI50 [5] was 2.5 µM and the TGI [5] was 8.46 µM. For the same molecule, the GI50 [6] was 3.11 µM, the TGI [6] was 14.9 µM and the GI50 [7] was 6.72 µM. For the same molecule, the TGI [7] was > 100 µM, the GI50 [8] was 5.65 µM and the TGI [8] was > 100 µM. For the same molecule, the GI50 [9] was 3.76 µM, the TGI [9] was > 100 µM and the GI50 [10] was 3.33 µM. For the same molecule, the TGI [10] was > 100 µM, the GI50 [11] was 1.8 µM and the TGI [11] was 8.32 µM. For the same molecule, the GI50 [12] was 4.69 µM, the TGI [12] was > 100 µM and the GI50 [13] was 2.74 µM. For the same molecule, the TGI [13] was > 100 µM, the GI50 [14] was 2.13 µM and the TGI [14] was 5.8 µM. For the same molecule, the GI50 [15] was 7.26 µM, the TGI [15] was > 100 µM and the GI50 [16] was 6.96 µM. For the same molecule, the TGI [16] was > 100 µM, the GI50 [17] was 2.76 µM and the TGI [17] was 10.3 µM. For the same molecule, the GI50 [18] was 6.07 µM, the TGI [18] was > 100 µM and the GI50 [19] was 3.84 µM. For the same molecule, the TGI [19] was > 100 µM, the GI50 [20] was 3.74 µM and the TGI [20] was > 100 µM. For the same molecule, the GI50 [21] was 2.26 µM, the TGI [21] was 54.7 µM and the GI50 [22] was 1.1 µM. For the same molecule, the TGI [22] was 5.53 µM, the GI50 [23] was 4.25 µM and the TGI [23] was > 100 µM. The GI50 [24] was 4.21 µM, the TGI [24] was > 100 µM and the GI50 [25] was 10 µM. For the same molecule, the TGI [25] was > 100 µM, the GI50 [26] was 3.42 µM and the TGI [26] was > 100 µM. For the same molecule, the GI50 [27] was 11 µM, the TGI [27] was > 100 µM and the GI50 [28] was 2.81 µM. The TGI [28] was > 100 µM, the GI50 [29] was 3.86 µM and the TGI [29] was > 100 µM.
